Several values for one entry are separate records, joined by “and”; a condition that tells them apart may be missing. Identical values can stand only once. Like-named read-outs stand apart in the source and are kept apart here.
Columns and labels:
[1] = tested on: Oyster; details: 5%, 15 months, per panel side
Text: (§1) HMTBA-Cu and HMTBA-Zn were supplied in powdered form by Novus International. […] The formulated paints were applied on PVC test panels (3 inch by 10 inch, ⅛ inch thickness), allowed to dry and shipped to a marine research center at Sacred Heart Marine Research Centre (SHMRC) in Tuticorin, India. The panels were mounted on frames on a floating platform in the open ocean and submerged totally under 3 ft of seawater for a period of 6 months, 9, or 12 months.
(§2) After the completion of the exposure period the panels were taken out of the seawater and transported to the shore laboratory in containers with seawater. The panels were evaluated by digital photography and physical examination of the coated surface. Barnacles were counted on the surface of the panels and along the edges. When there was substantial fouling on the surface, the area of the panel surface covered by barnacle fouling was estimated according to the methods described in ASTM D-3623. The panels were returned to the platform and again placed in total immersion. The panels were out of seawater during the examination for no more than 10 minutes.

[2] = tested on: Tube-worms; details: CuSP paint; 5%; 15 months; per panel side; nitrate trihydrate
Text: as §1, §2

[3] = tested on: barnacles; details: 5%, 15 months, per panel side
Text: as §1, §2

[4] = tested on: barnacle cyprids; test: Barnacle cyprid settlement assay (method of Rittschof et al.), EC50 by probit analysis; format: in vivo, Balanus amphitrite amphitrite; details: for appearance and swimming behavior of cyprids: 0.01 mg/ml and higher (so in the source); for toxic effects on the cyprids: 0.1 mg per ml; for EC50: barnacle cyprids not settled/attached to Petri dish; for EC50 / SLOPE: probit analysis; for inhibition of barnacle cyprid settlement: in vivo; for SLOPE: barnacle settlement
Description: In this case, the defined effect is that the cyprids have not settled and have not attached to the Petri dish. Thus, in the attached data set, the “set” column indicates the total number of cyprid larvae that have settled and attached on the surface of the Petri dish and “non-set” indicates the total number of cyprids that remain swimming in the seawater and have not settled on the surface of the Petri dish.
Briefly, the barnacle adults are cultured in the laboratory and allowed to spawn naturally. The larvae are harvested and grown in artificial culture systems until they reach the cyprid stage at which time the larvae become competent to attach to surfaces. Once attached, the cyprids transform into a pinhead barnacle, thus becoming permanently attached to the surface. Rittschof D, Clare A S, Gerhart D J, Avelin Mary, Bonavetura J (1991) Barnacle in vitro assays for biologically active substances: toxicity and settlement assays using mass cultured Balanus amphitrite amphitrite Darwin. Biofouling (1992) 6:115-122.
(§3) Five replicates (e.g., a-e) for each concentration and the control were collected.

[5] = Solubility in seawater at the levels added in the cyprid assay; format: physicochemical; details: at the levels added (up to 0.1 mg/ml)
Text: as §3

[6] = tested on: barnacles; test: Six month static immersion fouling test of painted PVC panels (open ocean, Tuticorin, India); format: in vivo; details: for Total barnacle Count: both duplicate panels; for Mean ± SD (barnacle count): four panel surfaces; for efficacy / barnacle settlement: copper self-polishing and metal-free ablative coatings, six months of exposure
Text: The reported data were extracted from the raw data as described below, and are shown as total barnacle counts for both duplicate panels of each test formulation. In Table 4, the mean and standard deviation of the data derived from the four panels' surfaces of the duplicate panels for each group. The barnacle counts along the edges were not considered in this evaluation because of the expected uneven coating and inherent tendency of barnacles to first attach to edges. In addition, coatings along the edges can be easily damaged or uneven. Thus, for evaluation purposes only the coated surfaces of the flat areas were considered for this evaluation.
Zinc Omadine was used as the positive control for this series of tests. It is important to note here that fouling is continuous throughout the year at the Tuticorin, India site and the degree of settlement is generally the same for the same coating system.

[7] = tested on: barnacles; test: Nine month static immersion testing in the Indian Ocean; format: in vivo; details: 9-month static immersion
Text: Table 5 summarizes the anti-fouling data from the nine-month immersion test, performed as described above for the six month tests.

[8] = 1e-5 mg/ml, Total of five replicates
[9] = 1e-4 mg/ml, Total of five replicates
[10] = 0.001 mg/ml, Total of five replicates
[11] = 0.01 mg/ml, Total of five replicates
[12] = 0.1 mg/ml, Total of five replicates
[13] = CUAB coating, 1% (w/w), 6 months
[14] = CUAB coating, 3% (w/w), 6 months
[15] = CUAB coating, 5% (w/w), 6 months
[16] = CUAB coating, 10% (w/w), 6 months
[17] = CUSP coating, 1% (w/w), 6 months
[18] = CUSP coating, 3% (w/w), 6 months
[19] = CUSP coating, 5% (w/w), 6 months
[20] = CUSP coating, 10% (w/w), 6 months
[21] = MFAB coating, 1% (w/w), 6 months
[22] = MFAB coating, 3% (w/w), 6 months
[23] = MFAB coating, 5% (w/w), 6 months
[24] = MFAB coating, 10% (w/w), 6 months

## O.O.O.O=[N+]([O-])[O-].O=[N+]([O-])[O-].[Cu+2] [Copper (II) Nitrate trihydrate, copper (II) nitrate trihydrate]
[1]; CuAB paint
  No. of Oyster: 1
[1]; CuSP paint
  No. of Oyster: 2
[2]
  No. of Tube-worms: 2 and 1
[3]; CuAB paint
  edge No of Barnacles: 3
[3]; CuAB paint, nitrate trihydrate
  Maximum diameter in mm: 10 mm and 11 mm and 9 mm
[3]; CuSP paint
  No. of barnacles on the coated surface: 84
[3]; CuSP paint, nitrate trihydrate
  % of the surface with barnacles fouling: 50% and 40% and 60%
  Maximum diameter in mm: 10 mm and 11 mm

## CSCCC(O)C(=O)[O-].CSCCC(O)C(=O)[O-].[Cu+2] (centres unmarked) [HMTBA-Cu, copper 2-hydroxy-4-methylthiobutanoate chelate]
[4]; [8]
  % of set: 74%
  Non set: 86
  Set: 241
[4]; 1e-5 mg/ml, single replicate
  % of set: 77% and 70% and 74% and 68% and 82%
  Non set: 14 and 21 and 15 and 25 and 11
  Set: 46 and 48 and 42 and 54 and 51
[4]; [9]
  % of set: 71%
  Non set: 89
  Set: 213
[4]; 1e-4 mg/ml, single replicate
  % of set: 66% and 79% and 63% and 73% and 72%
  Non set: 11 and 12 and 29 and 16 and 21
  Set: 21 and 46 and 49 and 43 and 54
[4]; [10]
  % of set: 53%
  Non set: 155
  Set: 173
[4]; 0.001 mg/ml, single replicate
  % of set: 46% and 56% and 42% and 55% and 65%
  Non set: 27 and 34 (2×) and 42 and 18
  Set: 23 and 44 and 31 and 41 and 34
[4]
  appearance and swimming behavior of cyprids: no adverse effects
  toxic effects on the cyprids: death of all cyprids
  EC50: 1.8 µg/mL
  inhibition of barnacle cyprid settlement: biologically active as inhibitors of barnacle cyprid settlement
  SLOPE: 1.567
[4]; [11]
  % of set: 10%
  Non set: 285
  Set: 30
[4]; 0.01 mg/ml, single replicate
  % of set: 9% and 6% and 8% (2×) and 24%
  Non set: 79 and 66 and 59 and 25 and 56
  Set: 8 (2×) and 4 and 5 (2×)
[4]; [12]
  % of set: 0%
  Non set: 314
  Set: 0
[4]; 0.1 mg/ml, single replicate
  % of set: 0%
  Non set: 69 and 94 and 54 and 59 and 38
  Set: 0
[5]
  solubility in seawater: soluble in seawater at the levels added
[6]; [13]
  Total barnacle Count: 472
  Mean ± SD (barnacle count): 118.0 ± 158.0
[6]; [14]
  Total barnacle Count: 170
  Mean ± SD (barnacle count): 42.5 ± 21.1
[6]; [15]
  Total barnacle Count: 126
  Mean ± SD (barnacle count): 31.4 ± 46.4
[6]; [16]
  Total barnacle Count: 123
  Mean ± SD (barnacle count): 30.8 ± 12.9
[6]; [17]
  Total barnacle Count: 4
  Mean ± SD (barnacle count): 1.0 ± 1.7
[6]; [18]
  Total barnacle Count: 6
  Mean ± SD (barnacle count): 1.5 ± 2.6
[6]; [19]
  Total barnacle Count: 8
  Mean ± SD (barnacle count): 2.0 ± 2.4
[6]; [20]
  Total barnacle Count: 9
  Mean ± SD (barnacle count): 2.3 ± 1.9
[6]; [21]
  Total barnacle Count: 8
  Mean ± SD (barnacle count): 2.0 ± 2.4
[6]; [22]
  Total barnacle Count: 13
  Mean ± SD (barnacle count): 3.3 ± 4.5
[6]; [23]
  Total barnacle Count: 11
  Mean ± SD (barnacle count): 2.8 ± 4.2
[6]; [24]
  Total barnacle Count: 4
  Mean ± SD (barnacle count): 1.0 ± 1.7
[6]
  efficacy / barnacle settlement: significant efficacy
[7]; CUSP PAINT
  LS MEAN BARNACLES: 16
[7]; MFAB PAINT
  LS MEAN BARNACLES: 1.25

## CSCCC(O)C(=O)[O-].CSCCC(O)C(=O)[O-].[Zn+2] (centres unmarked) [HMTBA-Zn, zinc 2-hydroxy-4-methylthiobutanoate chelate]
[4]; [9]
  % of set: 61%
  Non set: 122
  Set: 191
[4]; 1e-4 mg/ml, single replicate
  % of set: 57% and 60% (2×) and 77% and 55%
  Non set: 28 and 21 and 12 and 25 and 36
  Set: 37 and 31 and 41 and 38 and 44
[4]; [10]
  % of set: 58%
  Non set: 135
  Set: 187
[4]; 0.001 mg/ml, single replicate
  % of set: 62% and 78% and 69% and 41% and 42%
  Non set: 30 and 14 and 16 and 38 and 37
  Set: 49 (2×) and 36 and 26 and 27
[4]
  appearance and swimming behavior of cyprids: no adverse effects
  toxic effects on the cyprids: death of all cyprids
  EC50: 5.7 µg/mL
  inhibition of barnacle cyprid settlement: biologically active as inhibitors of barnacle cyprid settlement
  SLOPE: 1.564
[4]; [11]
  % of set: 32%
  Non set: 207
  Set: 99
[4]; 0.01 mg/ml, single replicate
  % of set: 30% and 26% and 40% and 32% and 35%
  Non set: 49 and 54 and 44 and 34 and 26
  Set: 21 and 19 and 29 and 16 and 14
[4]; [12]
  % of set: 0%
  Non set: 346
  Set: 0
[4]; 0.1 mg/ml, single replicate
  % of set: 0%
  Non set: 92 and 69 and 63 and 58 and 64
  Set: 0
[4]; probit data as input, DOSE .00001
  NO. RESPONDING: 97
[5]
  solubility in seawater: soluble in seawater at the levels added
[6]; [13]
  Total barnacle Count: 123
  Mean ± SD (barnacle count): 30.8 ± 11.6
[6]; [14]
  Total barnacle Count: 52
  Mean ± SD (barnacle count): 13.0 ± 10.7
[6]; [15]
  Total barnacle Count: 1
  Mean ± SD (barnacle count): 0.3 ± 0.4
[6]; [16]
  Total barnacle Count: 101
  Mean ± SD (barnacle count): 25.3 ± 2.9
[6]; [17]
  Total barnacle Count: 1
  Mean ± SD (barnacle count): 0.3 ± 0.4
[6]; [18]
  Total barnacle Count: 0
  Mean ± SD (barnacle count): 0
[6]; [19]
  Total barnacle Count: 0
  Mean ± SD (barnacle count): 0
[6]; [20]
  Total barnacle Count: 2
  Mean ± SD (barnacle count): 0.5 ± 0.9
[6]; [21]
  Total barnacle Count: 0
  Mean ± SD (barnacle count): 0
[6]; [22]
  Total barnacle Count: 3
  Mean ± SD (barnacle count): 0.8 ± 1.3
[6]; [23]
  Total barnacle Count: 1
  Mean ± SD (barnacle count): 0.3 ± 0.4
[6]; [24]
  Total barnacle Count: 7
  Mean ± SD (barnacle count): 1.8 ± 1.3
[6]; copper ablative coatings, 5%, six months
  comparative performance: outperformed
[6]
  efficacy / barnacle settlement: significant efficacy
[7]; CUSP PAINT
  LS MEAN BARNACLES: 3
[7]; MFAB PAINT
  LS MEAN BARNACLES: 1.5

## [O-][n+]1ccccc1[S-].[O-][n+]1ccccc1[S-].[Zn+2] [Zn Omadine, zinc salt of pyrithione, reference compound]
[6]; [15]
  Total barnacle Count: 167
  Mean ± SD (barnacle count): 41.8 ± 23.3
[6]; [19]
  Total barnacle Count: 33
  Mean ± SD (barnacle count): 8.3 ± 4.0
[6]; [23]
  Total barnacle Count: 113
  Mean ± SD (barnacle count): 28 ± 15.0
[6]; MFSP coating, 5%, 6 months
  barnacle coverage of panels: fully covered by barnacles
[6]
  efficacy / barnacle settlement: substantial settlement

## CSCC[C@H](N)C(=O)O.[Zn] [Zn-Methionine, zinc methionine]
[7]; CUSP PAINT
  LS MEAN BARNACLES: 0.5
[7]; MFAB PAINT
  LS MEAN BARNACLES: 8

— US7335248B2, “Marine antifouling coating compositions” (Novus International, Inc., priority 2005, dated 2008)
